According to patent publication US20250092088A1, “PEPTIDE COMPOUND PRODUCTION METHOD” (CHUBU UNIVERSITY EDUCATIONAL FOUNDATION, priority 2022, published 2025):

Experiment: TLC analysis of H-Ala-O-PG to evaluate polarity reduction by protecting groups
Format: physicochemical
Details: hexane/ethyl acetate=2/1, L-Ala with terminal carboxyl protected by PG (H-Ala-O-PG)
Text: As protecting groups for the terminal carboxyl groups of amino acid/peptide compounds, the silicon-containing hydrophobic substituents TAG1(Si), TAG2(Si), and TAG3(Si) synthesized in Examples 1 to 3, the conventionally known protecting group tBu group, and the previously mentioned TAGa group (alkoxybenzyl ester group) represented by the following formula, which is described in Non-Patent Literature 6 (Org. Process Res. Dev. 2019, Vol. 23, p. 2576-2581), were used to protect the terminal carboxyl of an amino acid (L-Ala), and their effects on polarity reduction were evaluated.

SMILES: C[C@H](N)C(=O)OC(C)(C)C [tBu, reference compound]
- Rf value: 0.07
